Reference: US20050277602A1, “Methods employing agonists of P38 map kinase for the treatment of asthma” (priority 2004, published 2005)
Values joined by “and” are separate entries in the source; they are usually repeats but may differ in a detail not shown here. Equal entries are not always repeated. “Also recorded” adds a separate entry of the source. Where two headings read alike, the source gives them in different places.

B1: Der p1: affinity purified house dust mite allergen with intrinsic cysteine protease activity, activated with cysteine (protein, UniProt P08176 99-320, looked up)
Peptidase 1: TNACSINGNAPAEIDLRQMRTVTPIRMQGGCGSCWAFSGVAATESAYLAYRNQSLDLAEQELVDCASQHGCHGDTIPRGIEYIQHNGVVQESYYRYVAREQSCRRPNAQRFGISNYCQIYPPNVNKIREALAQTHSAIAVIIGIKDLDAFRHYDGRTIIQRDNGYQPNYHAVNIVGYSNAQGVDYWIVRNSWDTNWGDNGYGYFAANIDLMMIEEYPYVVIL

What was measured:
rabbit ASM tissues [1] = test: Constrictor responses to acetylcholine in isolated rabbit ASM tissues (organ bath, isometric tension); type: cell-based; settings: for effect on constrictor responses to ACh in tissues not exposed to Der p1: control (vehicle-exposed) ASM; for maximal constrictor response (Tmax) to ACh: mean±SE
Protocol: (§1) Following general anesthesia with xylazine (10 mg/kg) and ketamine (50 mg/kg), rabbits were sacrificed with an overdose of pentobarbital (125 mg/kg). As described previously (Grunstein et al. (2001) Am J Physiol Lung Cell Mol Physiol 280:L229-L238), the tracheae were removed via open thoracotomy, the loose connective tissue and epithelium were carefully scraped and removed, and the tracheae were divided into ring segments. Each alternate ring was incubated for 24 hours at room temperature in the presence of either vehicle (saline) alone (control), vehicle containing cysteine (5 mM), or varying concentrations of affinity purified Der p1 allergen (0.1, 0.5, 1.0, 5.0 μg/ml) both in the absence and presence of cysteine, as addition of the latter is required to restore the cysteine protease activity of the purified Der p1. In parallel experiments, 30 min prior to incubation in control or Der p1-containing medium, ASM segments were treated with either the specific cysteine protease inhibitor, E-64 (trans-epoxysuccinyl-L-leucyl-amido (4-guanidino)-butane; 1 μM), the serine protease inhibitor, leupeptin (1 μM), the MEK1/2-specific inhibitors, U0126 (5 μM) or PD98059 (10 μM), or the specific p38 MAP kinase inhibitors, SB202190 (10 μM) or SB203580 (10 μM).
(§2) Following incubation, the ASM segments were placed in organ baths containing modified Krebs-Ringer solution aerated with 5% CO2 in oxygen (pH: 7.35-7.40), and the tissues were attached to force transducers from which isometric tension was continuously monitored on a multichannel recorder, as previously described (Hirst et al. (2002) Am J Respir Crit Care Med 165:1161-71). Cholinergic contractility was then assessed in the ASM segments by cumulative administration of acetylcholine (ACh; 10^−10 to 10^−4 M). Thereafter, the tissues were repeatedly rinsed with fresh buffer, and subsequent relaxation responses to isoproterenol (10^−10-10^−4 M) were generated after the tissues were half-maximally contracted with ACh. The constrictor dose-response curves to ACh were analyzed in terms of each tissue's maximal isometric contractile force (Tmax) to the agonist, and the relaxation responses to isoproterenol were assessed in terms of % maximal relaxation (Rmax) from the initial level of induced cholinergic contraction, and sensitivity to the relaxing agent was determined as the corresponding pD50 value (i.e., geometric mean ED50 value) associated with 50% of Rmax.

rabbit ASM tissues [2] = test: Relaxation responses to isoproterenol in isolated rabbit ASM tissues half-maximally contracted with ACh; type: cell-based; settings: for effect on relaxation responses to isoproterenol in tissues not exposed to Der p1: control ASM
Protocol: as §1, §2

ERK1/2 = test: Immunoblot analysis of phosphorylated ERK1/2 in rabbit ASM tissues; type: cell-based; settings: for effect on Der p1-induced expression of phosphorylated ERK1/2: Der p1-exposed ASM pretreated/co-treated with E-64, SB202190 or anisomycin (50 ng/ml)
Protocol: (§3) Protein levels of phosporylated and total ERK1/2 and p38 MAP kinase were assessed by Western blot analysis of whole cell lysates isolated from rabbit ASM tissues following treatment with either vehicle alone or cysteine-activated Der p1 (1 μg/ml), both in the absence and presence of E-64, SB202190, or anisomycin. The tissues were homogenized and proteins extracted in a buffer containing 50 mM Tris-HC 1,150 mM NaCl, 1 mM EDTA (pH 7.4) with 1 mM phenylmethylsulfonyl fluoride, 5 μg/mL aprotinin, and 5 μg/mL leupeptin. Following removal of insoluble debris by centrifugation, gel-loading buffer was added to the supernatants, and extracts were then loaded (using 30 μg total protein/sample) on a 10% SDS-PAGE gel for immunoblotting after transferring to a nitrocellulose membrane. The membranes were blocked with 5% nonfat dry milk and then incubated overnight with monoclonal mouse anti-human phosphotyrosine-threonine (Thr180/Tyr182)-p38 MAP kinase and p38 MAP kinase, and anti-human phosphotyrosine-threonine (Thr202/Tyr204)-p44/42 (ERK1/2) and p44/42 primary antibodies. The kinase levels were detected using enhanced chemiluminescence after a 1-hour incubation with a 1:1,000 dilution of horseradish peroxidase (HRP)-conjugated goat-anti-mouse secondary antibody, followed by exposure to autoradiography film. Protein band intensities were quantified using Alphalmager, and the data normalized relative to those obtained in untreated ASM samples.

p38 MAP kinase = test: Immunoblot analysis of phosphorylated p38 MAP kinase in rabbit ASM tissues; type: cell-based; settings: for expression of phosphorylated p38 MAP kinase relative to control (unstimulated) ASM: tissues exposed for 30 min, anisomycin 50 ng/ml or Der p1 alone
Protocol: as §3

[3] = system: cultured human ASM (HASM) cells; test: IgE-induced release of IL-6 from cultured human ASM cells (ELISA); type: cell-based
Protocol: Human airway smooth muscle cells were purchased from BioWhittaker, Inc., (Walkersville, […].) The cells were cultured in 100 mm dishes in Ham's F 12 nutrient mixture (Invitrogen, Carlsbad Calif.) supplemented with 10% FBS (Hyclone, Logan, Utah) under 5% CO2 environment. After attaining 90% confluence in cell culture, the cells were used for the studies described in Example 2.
Preparations of IgE immune complexes containing human IgE and mouse monoclonal IgG2B (anti-IgE) (Biodesign International, Saco, Me.) at a 15/5 μg ratio were added to cells 24 hr after serum deprivation. The cells were harvested at the indicated time points for immunoblotting and media were collected for ELISA analysis as described below.
IL 6 accumulation in the ASM cell culture media was detected using an ELISA kit for IL 6 purchased from Research Diagnostics Inc. (Flanders, N.J.). Culture media was diluted 1:50 into a sample dilution buffer supplied in the kit. The experiments were carried out according to the manufacturer's protocol.

OVA-sensitized mice = OVA-sensitized mice treated with U0126; cited from earlier work
HL-60 leukemia cells = settings: cited from earlier work
ASM preparations = test: Intracellular cAMP accumulation in ASM preparations (EIA); type: cell-based, rabbit; settings: tissues exposed to Der p1; data not shown
Protocol: Intracellular cAMP levels were assayed in control (untreated) and Der p1-treated ASM preparations under baseline (unstimulated) conditions and at 10 min following administration of isoproterenol (0.1-10 μM). Following stimulation with isoproterenol, the tissues were homogenized and the cAMP levels were measured using the Form a A cyclic AMP “PLUS” EIA kit (Biomol Inc., Plymouth Meeting, Pa.) following manufacturer's protocol.

[4] = Der p1-exposed ASM, E-64 1 μM, leupeptin 1 μM, U0126 5 μM, PD98059 10 μM, SB202190/SB203580 10 μM, anisomycin 50 ng/ml
[5] = Der p1 not pre-activated with cysteine (inactivated), data not shown
[6] = Der p1-exposed tissues, densitometry, 4 experiments

Molecule	effect of pretreatment on Der p1-induced enhanced constrictor responsiveness to ACh (rabbit ASM tissues [1]; [4])	effect on constrictor responses to ACh in tissues not exposed to Der p1 (rabbit ASM tissues [1])	effect of pretreatment on Der p1-induced impaired relaxation responsiveness to isoproterenol (rabbit ASM tissues [2]; [4])	effect on relaxation responses to isoproterenol in tissues not exposed to Der p1 (rabbit ASM tissues [2])	effect on Der p1-induced expression of phosphorylated ERK1/2 (ERK1/2)	also measured
CC(C)C[C@H](NC(=O)[C@H]1O[C@@H]1C(=O)O)C(=O)NCCCCN=C(N)N (relative stereo) [E-64, trans-epoxysuccinyl-L-leucyl-amido (4-guanidino)-butane]	largely abrogated	no effect	prevented	no effect	neither the levels of phosphorylated ERK1/2 nor p38 MAP kinase were appreciably altered	effect on Der p1-induced expression of phosphorylated p38 MAP kinase (p38 MAP kinase): neither the levels of phosphorylated ERK1/2 nor p38 MAP kinase were appreciably altered
COc1cccc(-c2cc(=O)c3ccccc3o2)c1N [PD98059]	qualitatively comparable opposing effects; also recorded: largely prevented	neither of these inhibitors produced a significant change	qualitatively comparable opposing effects; also recorded: largely prevented	neither of these inhibitors produced a significant change		
Oc1ccc(-c2nc(-c3ccncc3)c(-c3ccc(F)cc3)[nH]2)cc1 [SB202190]	further augmented		further significantly impaired		distinctly enhanced	maximal constrictor response (Tmax) to ACh (rabbit ASM tissues [1]; Der p1-exposed tissues pretreated with SB202190 (10 μM)): 136.2±6.2 g/g ASM wt.; maximal relaxation (Rmax) to isoproterenol (rabbit ASM tissues [2]; Der p1-exposed tissues pretreated with SB202190 (10 μM), mean): 37.6±7.1%; IgE-induced release of IL-6, augmented ([3]; IgE-exposed HASM cells pretreated with SB-202190): approximately 9 fold
C[S+]([O-])c1ccc(-c2nc(-c3ccncc3)c(-c3ccc(F)cc3)[nH]2)cc1 (centres unmarked) [SB203580]	qualitatively comparable opposing effects	neither of these inhibitors produced a significant change	qualitatively comparable opposing effects	neither of these inhibitors produced a significant change		
N#CC(=C(/N)Sc1ccccc1N)/C(C#N)=C(\N)Sc1ccccc1N [U0126]						effect of pretreatment on Der p1-induced enhanced constrictor responsiveness to ACh (rabbit ASM tissues [1]): completely abrogated; effect of pretreatment on Der p1-induced impaired relaxation responsiveness to isoproterenol (rabbit ASM tissues [2]): largely ablated; effect on IgE-induced release of IL-6 ([3]; IgE-exposed HASM cells, concomitant pretreatment with U-0126): completely abrogated; airway hyperresponsiveness, elevated intrapulmonary eosinophil counts and cytokine levels (OVA-sensitized mice): significantly inhibit
COc1ccc(C[C@H]2NC[C@H](O)[C@H]2OC(C)=O)cc1 [anisomycin]	completely abrogated	no effect	largely prevented	no significant effect	largely abrogated	effect on phosphorylated ERK1/2 expression in unstimulated ASM (ERK1/2; anisomycin 50 ng/ml, 30 min, no Der p1): essentially no effect; expression of phosphorylated p38 MAP kinase relative to control (unstimulated) ASM (p38 MAP kinase): increased expression; stimulated ERK activity (HL-60 leukemia cells; stimulated HL-60 cells): inhibits; basal ERK activity (HL-60 leukemia cells; unstimulated HL-60 cells): no effect
CC(=O)N[C@@H](CC(C)C)C(=O)N[C@@H](CC(C)C)C(=O)N[C@H](C=O)CCCNC(=N)N [leupeptin]	unaffected		unaffected			
B1						maximal constrictor response (Tmax) to ACh (rabbit ASM tissues [1]; ASM exposed 24 h to cysteine-activated Der p1 (1 μg/ml)): 133.7±8.4 g/g ASM wt. and 123.8±6.5 g/g ASM wt. and 119.0±8.2 g/g ASM wt.; effect on constrictor responsiveness (rabbit ASM tissues [1]; [5]): no effect; sensitivity to isoproterenol (pD50) (rabbit ASM tissues [2]; ASM exposed 24 h to Der p1, mean±SE): 5.99±0.04 -log M; maximal relaxation (Rmax) to isoproterenol (rabbit ASM tissues [2]; ASM exposed 24 h to cysteine-activated Der p1, mean±SE): 37.9±4.9% and 48.8±4.7%; effect on relaxant responsiveness (rabbit ASM tissues [2]; [5]): no effect; maximal enhanced expression of phosphorylated ERK1/2 above basal (pretreatment) level (ERK1/2; [6]): 5.8 fold; maximal enhanced expression of phosphorylated p38 MAP kinase above basal (pretreatment) level (p38 MAP kinase; [6]): 3.2 fold; expression of phosphorylated p38 MAP kinase relative to control (unstimulated) ASM (p38 MAP kinase): increased expression; isoproterenol-induced cAMP accumulation relative to control (untreated) ASM (ASM preparations): reduced
